# Experimental data published in patent US20250332173A1, “COMPOUNDS AND METHODS FOR MODULATING NUCLEIC ACID SPLICING” (REMIX THERAPEUTICS INC., priority 2021, published 2025).
# Read-outs that look alike come from different tables or passages of the source.
# Key:
# MYB mRNA = experiment: RT-qPCR splicing assay, MYB canonical junction (CJ) and alternative junction (AJ) mRNA; format: cell-based, human; settings: Homo sapiens; for AC50: increase in MYB alternative junction (AJ) mRNA, read-out: MYB AJ AC50
# Summary of the method: (§1)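 Read-out is one-step RT-qPCR on cell lysates detecting the exon-exon junction of each isoform, normalized to a housekeeping gene (PPIA in A673, GAPDH or GUSB in K562).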
# HTT mRNA = experiment: RT-qPCR splicing assay, HTT canonical junction (CJ) and alternative junction (AJ) mRNA; format: cell-based, human; settings: Homo sapiens; for AC50: increase in HTT alternative junction (AJ) mRNA, read-out: HTT AJ AC50
# Summary of the method: as §1
# Target C = experiment: RT-qPCR splicing assay panel, Target C canonical junction (CJ) mRNA; format: cell-based, human; settings: Homo sapiens; canonical junction qPCR panel, Table 5; read-out: Target C (decrease in CJ mRNA levels, IC50)
# Summary of the method: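 Canonical-junction transcript levels in compound-treated A673 or K562 cells (24 h, up to 10 uM final) were determined from lysates by RT-qPCR with housekeeping-gene normalization.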
# [1] = system: K562 (human chronic myelogenous leukemia) cells; experiment: Cell Titer Glo 2.0 cell viability assay; format: cell-based; settings: Homo sapiens, K562, 72 h, K562 cells, 72 hours, Cell Titer Glo 2.0; read-out: K562 GI50
# [2] = canonical junction qPCR panel, Table 5, read-out: MYB (decrease in CJ mRNA levels, IC50)
# [3] = decrease in MYB canonical junction (CJ) mRNA, RT-qPCR, read-out: MYB CJ IC50
# [4] = decrease in HTT canonical junction (CJ) mRNA, RT-qPCR, read-out: HTT CJ IC50
# [5] = canonical junction qPCR panel, Table 5, read-out: HTT (decrease in CJ mRNA levels, IC50)
Compound,IC50 (MYB mRNA; [2]),IC50 (MYB mRNA; [3]),IC50 (HTT mRNA; [4]),IC50 (HTT mRNA; [5]),IC50 (Target C),GI50 [1],AC50 (MYB mRNA; RT-qPCR),AC50 (HTT mRNA; RT-qPCR)
"Cc1c(O)c(-c2ncc3c(=O)n(C4CNC4)ccc3n2)cc2cn(C)nc12 [Compound 1305, 6-(azetidin-3-yl)-2-(6-hydroxy-2,7-dimethyl-indazol-5-yl)pyrido[4,3-d]pyrimidin-5-one]",1000 to 10000 nM,1000 to 10000 nM,> 10000 nM,> 10000 nM,> 10000 nM,1000 to 10000 nM,1000 to 10000 nM,> 10000 nM
CN1CCC(n2ncc3nc(-c4cc5cn(C)nc5cc4O)ccc3c2=O)CC1 [Compound 1307],1000 to 10000 nM,1000 to 10000 nM,1000 to 10000 nM,1000 to 10000 nM,1000 to 10000 nM,1000 to 10000 nM,1000 to 10000 nM,1000 to 10000 nM
CCN1CCC(n2ncc3nc(-c4cc5cn(C)nc5cc4O)ccc3c2=O)CC1 [Compound 1310],1000 to 10000 nM,1000 to 10000 nM,1000 to 10000 nM,100 to 1000 nM,1000 to 10000 nM,100 to 1000 nM,1000 to 10000 nM,100 to 1000 nM
"Cc1c(O)c(-c2ncc3c(=O)n([C@@H]4C[C@H]5CC[C@@H](C4)N5)ccc3n2)cc2cn(C)nc12 [Compound 1429, 6-[(1S,5R)-8-azabicyclo[3.2.1]octan-3-yl]-2-(6-hydroxy-2,7-dimethyl-indazol-5-yl)pyrido[4,3-d]pyrimidin-5-one]",< 100 nM,< 100 nM,100 to 1000 nM,100 to 1000 nM,1000 to 10000 nM,100 to 1000 nM,< 100 nM,100 to 1000 nM
"Cc1c(O)c(-c2ncc3c(=O)n([C@H]4C[C@@H](N)C4)ccc3n2)cc2cn(C)nc12 [Compound 1431, 6-((1s,3s)-3-aminocyclobutyl)-2-(6-hydroxy-2,7-dimethyl-2H-indazol-5-yl)pyrido[4,3-d]pyrimidin-5(6H)-one]",1000 to 10000 nM,1000 to 10000 nM,1000 to 10000 nM,1000 to 10000 nM,1000 to 10000 nM,1000 to 10000 nM,1000 to 10000 nM,1000 to 10000 nM
"Cc1cn2nc(-c3ccc4c(=O)n([C@@H]5CCNC5)ccc4n3)cc(C)c2n1 [Compound 1438, 2-(2,8-dimethylimidazo[1,2-b]pyridazin-6-yl)-6-[(3R)-pyrrolidin-3-yl]-1,6-naphthyridin-5-one]",100 to 1000 nM,100 to 1000 nM,1000 to 10000 nM,1000 to 10000 nM,1000 to 10000 nM,1000 to 10000 nM,100 to 1000 nM,1000 to 10000 nM
Cc1c(O)c(-c2ncc3c(=O)n(C4CCNC(C)(C)C4)ccc3n2)cc2cn(C)nc12 (stereo not drawn) [Compound 1442],100 to 1000 nM,< 100 nM,1000 to 10000 nM,100 to 1000 nM,1000 to 10000 nM,100 to 1000 nM,100 to 1000 nM,100 to 1000 nM
"Cc1c(O)c(-c2ncc3c(=O)n([C@@H]4C[C@H]5C[C@@H]4CN5)ccc3n2)cc2cn(C)nc12 [Compound 1445, 6-[(1R,4R,5R)-2-azabicyclo[2.2.1]heptan-5-yl]-2(6-hydroxy-2,7-dimethyl-indazol-5-yl)pyrido[4,3-d]pyrimidin-5-one]",1000 to 10000 nM,> 10000 nM,> 10000 nM,> 10000 nM,> 10000 nM,1000 to 10000 nM,1000 to 10000 nM,> 10000 nM

# More lines, main results first:
IC50 (MYB mRNA; [2]),IC50 (MYB mRNA; [3]),IC50 (HTT mRNA; [4]),IC50 (HTT mRNA; [5]),IC50 (Target C),GI50 [1],Compound,AC50 (MYB mRNA; RT-qPCR),AC50 (HTT mRNA; RT-qPCR)
100 to 1000 nM,100 to 1000 nM,100 to 1000 nM,100 to 1000 nM,100 to 1000 nM,100 to 1000 nM,Cn1cc2cc(-c3ccc4c(=O)n(C5CCNC6(CC6)C5)ncc4n3)c(O)cc2n1 (stereo not drawn) [Compound 1306],100 to 1000 nM,100 to 1000 nM
100 to 1000 nM,100 to 1000 nM,100 to 1000 nM,< 100 nM,100 to 1000 nM,100 to 1000 nM,CCN1CCC(n2ncc3nc(-c4cc(C)c5nc(C)cn5n4)ccc3c2=O)CC1 [Compound 1308],100 to 1000 nM,< 100 nM
100 to 1000 nM,100 to 1000 nM,100 to 1000 nM,< 100 nM,100 to 1000 nM,100 to 1000 nM,Cc1cn2nc(-c3ccc4c(=O)n(C5CCN(CCF)CC5)ncc4n3)cc(C)c2n1 [Compound 1309],100 to 1000 nM,< 100 nM
100 to 1000 nM,100 to 1000 nM,100 to 1000 nM,100 to 1000 nM,100 to 1000 nM,100 to 1000 nM,Cc1cn2nc(-c3ccc4c(=O)n(C5CCN(C)CC5)ncc4n3)cc(C)c2n1 [Compound 1311],100 to 1000 nM,100 to 1000 nM
100 to 1000 nM,100 to 1000 nM,> 10000 nM,1000 to 10000 nM,1000 to 10000 nM,< 100 nM,Cc1c(O)c(-c2ncc3c(=O)n(C45CCC(N)(CC4)C5)ccc3n2)cc2cn(C)nc12 [Compound 1428],100 to 1000 nM,1000 to 10000 nM
100 to 1000 nM,100 to 1000 nM,1000 to 10000 nM,1000 to 10000 nM,1000 to 10000 nM,100 to 1000 nM,"Cc1c(O)c(-c2ncc3c(=O)n([C@H]4C[C@H](N)C4)ccc3n2)cc2cn(C)nc12 [Compound 1432, 6-((1r,3r)-3-aminocyclobutyl)-2-(6-hydroxy-2,7-dimethyl-2H-indazol-5-yl)pyrido[4,3-d]pyrimidin-5(6H)-one]",100 to 1000 nM,1000 to 10000 nM
100 to 1000 nM,100 to 1000 nM,1000 to 10000 nM,100 to 1000 nM,1000 to 10000 nM,100 to 1000 nM,"Cc1c(O)c(-c2ncc3c(=O)n([C@@H]4CCN[C@H](C)C4)ccc3n2)cc2cn(C)nc12 [Compound 1434, 2-(6-hydroxy-2,7-dimethyl-indazol-5-yl)-6-(2-methyl-4-piperidyl)pyrido[4,3-d]pyrimidin-5-one]",100 to 1000 nM,100 to 1000 nM
< 100 nM,< 100 nM,1000 to 10000 nM,1000 to 10000 nM,1000 to 10000 nM,< 100 nM,Cc1c(O)c(-c2ncc3c(=O)n([C@H]4CCNC(C)(C)C4)ccc3n2)cc2cn(C)nc12 [Compound 1436],< 100 nM,1000 to 10000 nM
100 to 1000 nM,100 to 1000 nM,1000 to 10000 nM,1000 to 10000 nM,1000 to 10000 nM,1000 to 10000 nM,"Cc1cn2nc(-c3ccc4c(=O)n([C@H]5CCNC5)ccc4n3)cc(C)c2n1 [Compound 1437, 2-(2,8-dimethylimidazo[1,2-b]pyridazin-6-yl)-6-[(3S)-pyrrolidin-3-yl]-1,6-aphthyridin-5-one]",100 to 1000 nM,1000 to 10000 nM
< 100 nM,< 100 nM,100 to 1000 nM,100 to 1000 nM,100 to 1000 nM,< 100 nM,"Cc1c(O)c(-c2ncc3c(=O)n([C@H]4CCN[C@@H](C)C4)ccc3n2)cc2cn(C)nc12 [Compound 1441, 2-(6-hydroxy-2,7-dimethyl-indazol-5-yl)-6-(2-methyl-4-piperidyl)pyrido[4,3-d]pyrimidin-5-one]",< 100 nM,100 to 1000 nM
